# Tests used:
# [1] = tested on: serum samples from patients infected with group O HIV-1 retroviruses; experiment: Immunoenzymatic test: Test No. 2 (immunoreactivity with diluted sera); format: binding, human; conditions: solid phase peptide 2 μg/ml; for Number of samples: sera of Table V; for ABSORBANCE (OD): cyclized
# From the text: The serum samples from patients infected with group O HIV-1 retroviruses were obtained by the Yaounde Pasteur Centre in Cameroon and were serotyped group O according to the serological algorithm described in AIDS (1977), 11, pp. 445-453. A genotyped sample (Maryland) is obtained from the United States. These samples were previously diluted in negative human serum at the dilutions given in Table V, in order to have a sufficient volume for the different immunoreactivity tests.
# The synthetic peptides used were dissolved in water at a concentration of 1 mg/ml (stock solution). For the solid phase sensitization step (“coating”), the procedure was carried out as described for Example 2.
# The serum samples were diluted 1/5 with a skimmed milk solution (citrate buffer supplemented with 0.01% of phenol red, 0.25% of chloroform and 0.25% of Kathon®), deposited in the wells of plates and incubated for 30 min at 40° C.
# (§1) After washing with a Tris-NaCl buffer solution pH 7.4 containing 0.1% of Tween® 20 and 0.001% of sodium merthiolate, 100 μl of a solution of conjugate consisting of horseradish peroxidase-labelled anti-human IgG and IgM goat antibodies, containing as preservative 0.01% of sodium merthiolate, in solution in a citrate buffer solution supplemented with 30% glycerol and 25% normal foetal calf serum, were added to each well of the plates and then they were incubated for 30 min at 40° C.
# After washing with a Tris-NaCl buffer solution pH 7.4 containing 0.1% of Tween® 20 and 0.001% of sodium merthiolate, the colour was developed as described in Example 2.
# The relative absorbance (OD) (A490-A620) read in each well is proportional to the immunoreactivity of each peptide. It indicates the ability of each peptide to react with the biological sample with which the test is carried out.
# The reactivity of the peptides of the invention, peptides No. 10 (14B), No. 11 (18B), No. 12 (19B), No. 14 (21B), No. 15 (22B), No. 16 (23B) all in cyclized form, was compared with that of three homologous synthetic peptides having, as sequence, a portion of the natural sequence of the envelope (env) of a group O HIV-1 retrovirus. These peptides are two peptides derived from the VAU isolate—the peptide VAU 22 AA and the peptide VAU 35 AA—and the peptide MVP 5180 (designated “MVP 5180” in Table V). The peptides VAU 22 AA and VAU 35 AA (whose structure is indicated in Example 2) and the peptide MVP 5180 comprise an immunodominant epitope of gp41.
# All these peptides were used in cyclized form. The sequence of the MVP 5180 peptide is the following:
# For each peptide tested, the samples were arranged into four classes (a, b, c and d) corresponding to various levels of relative absorbance read at the wavelengths A492-A620: • for a: OD<0.100, • for b: 0.100<OD<0.500, • for c: 0.500<OD<1.000, • for d: OD>1.000, thus making it possible to evaluate the degree of immunoreactivity of the peptides.
# [2] = tested on: sera from patients infected with group O HIV-1 retroviruses; experiment: Immunoenzymatic test: Test No. 1 (immunoreactivity of peptides coated on microplates); format: binding, human; design: key to ABSORBANCE: >: signal greater than the reading capacity of the spectrophotometer; conditions: for ABSORBANCE: cyclized peptide 2 μg/ml
# Experimental: The sera used ESS, DUR, VAU and HAD are sera from French patients infected with group O HIV-1 retroviruses. The other serum samples from patients infected with group O HIV-1 retroviruses were obtained by the Yaoundé Pasteur Centre in Cameroon and were serotyped group O according to the serological algorithm described in AIDS (1977), 11, pp 445-453.
# The HIV-negative sera (n=48) were obtained from healthy volunteers.
# The synthetic peptides used were dissolved in water at a concentration of 1 mg/ml (stock solution). For the solid phase sensitization step (coating), 110 μl of a solution at 2 μg/ml of each peptide (obtained by diluting the stock solution with 0.1 M carbonate buffer solution) were added to each well of the microtitre plates Microtiter™ (NUNC). After incubating overnight at room temperature, the microplates were first washed with a Tris-NaCl buffer solution pH 7.4 containing 0.1% of Tween® 20 and 0.001% sodium merthiolate, and then saturated with a PBS solution containing 0.5% of Régilait™ (dried skimmed milk). After aspirating the saturating solution, the plates were heated for 10 min at 50° C.
# The serum samples were diluted 1/5 with a skimmed milk solution (citrate buffer supplemented with 0.01% of phenol red, 0.25% of chloroform and 0.25% of Kathon®), deposited in the wells of the plates and incubated for 30 min at 40° C.
# as §1, with “each plate” for “each”, “well and then” for “well of”, “plates” for “plates and then they”
# After washing with a Tris-NaCl buffer solution pH 7.4 containing 0.1% of Tween® 20 and 0.001% of sodium merthiolate, the colour was developed by adding, to each well, 100 μl of O-phenylenediamine in solution in hydrogen peroxide. The microplates were then incubated for 30 min at room temperature and in the dark. The coloured reaction was then stopped by addition of 100 μl of 4N sulphuric acid. The absorbance (A) was determined at 490 and 620 nm.
# The relative absorbance (A490-A620) read in each well is proportional to the immunoreactivity of each peptide. It indicates the ability of each peptide to react with the biological sample with which the test is carried out. The cut-off value was determined as being an absorbance equal to 0.15. It corresponds to the mean of the negative values (n=48) plus 12 standard deviations.
# The reactivity of the peptides of the invention (peptide No. 3 (4B), peptide No. 2 (3B) and peptide No. 1 (2B), all in cyclized form), was compared with that of two synthetic peptides having, as sequence, a portion of the natural sequence of the envelope (env) of the VAU isolate (group O HIV-1 retrovirus) and comprising an immunodominant epitope of gp41.
# For the study, these peptides were used in cyclized form.
sequence,measurement,setting,value
ALETLLQNQQLLNIWGCRGRLVCYTSVRWNET [PEPTIDE No. 12 (19B)],Number of samples,[1]; CLASS A (a: OD<0.100),0
same,Number of samples,[1]; CLASS B (b: 0.100<OD<0.500),11
same,Number of samples,[1]; CLASS C (c: 0.500<OD<1.000),2
same,Number of samples,[1]; CLASS D (d: OD>1.000),1
same,ABSORBANCE (OD),[1]; serum 258 OUDI at 1/100,0.226
same,ABSORBANCE (OD),[1]; serum 625 at 1/50,0.264
same,ABSORBANCE (OD),[1]; serum 3600 at 1/100,0.249
same,ABSORBANCE (OD),[1]; serum 3613 at ¼00,0.773
same,ABSORBANCE (OD),[1]; serum 3653 at 1/10,0.247
same,ABSORBANCE (OD),[1]; serum 4280 at 1/50,0.201
same,ABSORBANCE (OD),[1]; serum 6111 at 1/100,0.202
same,ABSORBANCE (OD),[1]; serum DJOU at 1/100,0.419
same,ABSORBANCE (OD),[1]; serum DO15 at 1/100,1.286
same,ABSORBANCE (OD),[1]; serum MBASSI at 1/100,0.747
same,ABSORBANCE (OD),[1]; serum Maryland at ¼00,0.285
same,ABSORBANCE (OD),[1]; serum NGO at 1/50,0.193
same,ABSORBANCE (OD),[1]; serum NJEM at 1/100,0.391
same,ABSORBANCE (OD),[1]; serum WANG at 1/50,0.124
LLSLWGCRGRLVCYTSVQWNET [PEPTIDE No. 2 (3B)],ABSORBANCE,[2]; serum 134,>
same,ABSORBANCE,[2]; serum 402,>
same,ABSORBANCE,[2]; serum 625,>
same,ABSORBANCE,[2]; serum 1062,>
same,ABSORBANCE,[2]; serum 1105*,1.031
same,ABSORBANCE,[2]; serum 1581,>
same,ABSORBANCE,[2]; serum 1702,>
same,ABSORBANCE,[2]; serum 1754,>
same,ABSORBANCE,[2]; serum 2294,>
same,ABSORBANCE,[2]; serum 2312,>
same,ABSORBANCE,[2]; serum 2313,>
same,ABSORBANCE,[2]; serum 2352,>
same,ABSORBANCE,[2]; serum 2551,>
same,ABSORBANCE,[2]; serum 2700,0.274
same,ABSORBANCE,[2]; serum 3016,>
same,ABSORBANCE,[2]; serum 3136,0.992
same,ABSORBANCE,[2]; serum 3235,>
same,ABSORBANCE,[2]; serum 3236,>
same,ABSORBANCE,[2]; serum 3302,>
same,ABSORBANCE,[2]; serum 3482,>
same,ABSORBANCE,[2]; serum 3529,>
same,ABSORBANCE,[2]; serum 3600*,>
same,ABSORBANCE,[2]; serum 3627*,>
same,ABSORBANCE,[2]; serum 3637,>
same,ABSORBANCE,[2]; serum 3653,>
same,ABSORBANCE,[2]; serum 3771,>
same,ABSORBANCE,[2]; serum 3884*,>
same,ABSORBANCE,[2]; serum 3891,>
same,ABSORBANCE,[2]; serum 3935,0.893
same,ABSORBANCE,[2]; serum 3945,>
same,ABSORBANCE,[2]; serum 4021*,0.119
same,ABSORBANCE,[2]; serum 4288*,>
same,ABSORBANCE,[2]; serum 4364,>
same,ABSORBANCE,[2]; serum 4434,>
same,ABSORBANCE,[2]; serum 4477,>
same,ABSORBANCE,[2]; serum 4489*,>
same,ABSORBANCE,[2]; serum 5149*,>
same,ABSORBANCE,[2]; serum 5164,>
same,ABSORBANCE,[2]; serum 5210,>
same,ABSORBANCE,[2]; serum 5270*,>
same,ABSORBANCE,[2]; serum 5373,>
same,ABSORBANCE,[2]; serum 5453,0.081
same,ABSORBANCE,[2]; serum 5766*,>
same,ABSORBANCE,[2]; serum 5931,>
same,ABSORBANCE,[2]; serum 5969*,0.282
same,ABSORBANCE,[2]; serum 6111,>
same,ABSORBANCE,[2]; serum 6165,>
same,ABSORBANCE,[2]; serum 6198*,>
same,ABSORBANCE,[2]; serum 6295*,1.063
same,ABSORBANCE,[2]; serum 6487,1.017
same,ABSORBANCE,[2]; serum 6512*,0.785
same,ABSORBANCE,[2]; serum 6627,>
same,ABSORBANCE,[2]; serum 6689*,>
same,ABSORBANCE,[2]; serum 6697,>
same,ABSORBANCE,[2]; serum 6782,2.091
same,ABSORBANCE,[2]; serum 6891,0.614
same,ABSORBANCE,[2]; serum 6976*,>
same,ABSORBANCE,[2]; serum 6998,>
same,ABSORBANCE,[2]; serum 7007,2.334
same,ABSORBANCE,[2]; serum 7120,>
same,ABSORBANCE,[2]; serum 7212,>
same,ABSORBANCE,[2]; serum 7258*,>
same,ABSORBANCE,[2]; serum 7297*,>
same,ABSORBANCE,[2]; serum 7439,>
same,ABSORBANCE,[2]; serum 7443,>
same,ABSORBANCE,[2]; serum DUR*,>
same,ABSORBANCE,[2]; serum ESS*,>
same,ABSORBANCE,[2]; serum HAD,0.518
same,ABSORBANCE,[2]; serum VAU*,>
same,immunoreactivity compared with the other peptides (in words),[2]; summary of Table IV,more immunoreactive than the VAU 22 AA peptide
